Results published in US11844349B2, “Anti-microbial agent to control biomass accumulation in SO2 scrubbers” (ECOLAB USA INC., priority 2016, dated 2023).

Test system: bacterial populations native to the test sample
Assay: Minimum inhibitory concentration screen of biocides under anaerobic conditions (pH indicator dye)
Type: cell-based
Conditions: pH 6.5, read-out: Minimum Inhibitory Concentration
From the text: A few exemplary biocides or a combination of one or more quaternary ammonium compounds with one additional biocide were investigated for their ability to inhibit microorganism growth. The method used to generate the data in Table 1 was based on methods for identifying the minimum inhibitory concentration of biocides or biocidal agents for use in anaerobically contaminated aqueous system as disclosed in the patent publication WO9934013A1 by Schwingel, et. al.
The method was a test assay used to rapidly screen antimicrobial agents against bacterial populations native to the test sample under anaerobic conditions. The assay utilized a pH indicator dye which is red at pH levels above 6.5 and yellow below pH 6.5. During fermentation under anaerobic conditions, volatile fatty acids were produced, which lowered the pH of the system. In the test wells, the accumulation of volatile fatty acids from actively growing and fermenting microorganisms lowered the pH causing the indicator dye to turn yellow. […]
When the control sample had turned yellow due to active fermentation and acid production, all samples were examined for color change, and the Minimum Inhibitory Concentration (MIC) values recorded. […] Because MIC values change with extended contact time, it was important to read the MIC values within 2-3 hours of the control wells turning yellow. […]

SMILES	MIC [µg/mL]
N#CSCSC#N [Methylenebisthiocyanate]	0.8 to 1.6
CN1CSC(=S)N(C)C1 [3,5-dimethyl-tetrahydro-2H-1,3,5-thiadiazine-2-thione]	26.2
